The text below walks through data of US20230125487A1, “COMPOSITION FOR TREATING OR PREVENTING INFLAMMATORY BOWEL DISEASE” (FUGENBIO CO., LTD., priority 2019, published 2023).

Molecules are shown by their SMILES.

One assay concerns nitric oxide (NO). The assay can be described thus: NO level in LPS-stimulated RAW 264.7 macrophages. It is filed as cell-based. The settings on record: 0.1 μg/mL E. coli-derived LPS, 25 μM compound, FIGS. 7a and 7b. As to the method: (§1) RAW 264.7 macrophages were treated with 0.1 μg/mL of E. coli-derived LPS and 25 μM of Compounds A1 to A6, B1 to B6, or C1 to C6, respectively. Then, the mRNA expression level of the inflammatory cytokine TNFα was observed through RT-PCR.
Nitric oxide (NO), which is increased by LPS stimulation in RAW 264.7 macrophages, is one of the causes of inflammatory bowel disease along with inflammatory cytokines. Therefore, in Experimental Example 3, it was confirmed in the same manner as in Experimental Example 1 whether NO produced by LPS stimulation could be reduced by the compound according to the present invention.
FIGS. 7a and 7b show the results of observing NO concentration (μM).

In another assay the test system is IL-1α. The assay can be described thus: IL-1α mRNA expression in LPS-stimulated RAW 264.7 macrophages. The settings on record: 0.1 μg/mL E. coli-derived LPS, 25 μM compound, FIG. 4. The format is cell-based.
In assay [1] the test system is free radicals and NO formation. The settings on record: disclosed in Cheng et al., Biochemical Pharmacology, 2001, Vol. 61, 939-946; cited from earlier work.
The subject of a further assay is MCP1. The assay can be described thus: MCP1 mRNA expression in LPS-stimulated RAW 264.7 macrophages. It is filed as cell-based. The settings on record: 0.1 μg/mL E. coli-derived LPS, 25 μM compound, FIG. 6.
A further assay concerns TNFα. The assay can be described thus: TNFα mRNA expression in LPS-stimulated RAW 264.7 macrophages (RT-PCR). It is filed as cell-based. The settings on record: 0.1 μg/mL E. coli-derived LPS, 25 μM compound, FIGS. 1a to 1c. As to the method: as §1
A further assay has as its system COX2. The assay can be described thus: COX2 mRNA expression in LPS-stimulated RAW 264.7 macrophages. The settings on record: 0.1 μg/mL E. coli-derived LPS, 25 μM compound, FIGS. 2a and 2b. It is filed as cell-based. As to the method:
as §1
(§2) FIGS. 2a and 2b show the result of representing the mRNA expression level of COX2. FIGS. 3a and 3b show the result of representing the mRNA expression level of iNOS.

In another assay the test system is IL-1β. The assay can be described thus: IL-1β mRNA expression in LPS-stimulated RAW 264.7 macrophages. The format is cell-based. The settings on record: 0.1 μg/mL E. coli-derived LPS, 25 μM compound, FIG. 5.
Another assay has as its system iNOS. The assay can be described thus: iNOS mRNA expression in LPS-stimulated RAW 264.7 macrophages. It is filed as cell-based. The settings on record: 0.1 μg/mL E. coli-derived LPS, 25 μM compound, FIGS. 3a and 3b. On the procedure:
as §1, §2

Regarding `CC(C)=CCc1cc(C(=O)/C=C/c2ccc(O)c(O)c2)c(O)cc1O` [Compound A1, broussochalcone A], the “NO level increased by LPS stimulation” value in the assay with nitric oxide (NO) was “suppressed”. In the assay with IL-1α, the “mRNA expression level of IL-1α” value is reported as “suppressed”. Also, the “excessive free radicals and NO formation” value in assay [1] is on record as “inhibits”. Besides, the “mRNA expression level of MCP1” value in the assay with MCP1 is “suppressed”. Further, the “increase in the mRNA expression level of TNFα induced by LPS stimulation” value in the assay on TNFα is on record as “suppressed”. Moreover, the “mRNA expression level of COX2” value in the assay on COX2 was “suppressed”. In addition, the “mRNA expression level of IL-1β” value in the assay with IL-1β is recorded as “suppressed”. The “mRNA expression level of iNOS” value in the assay on iNOS is on record as “suppressed”.
